Patent US12193444B2, “Insecticidal composition and use thereof” (ADAMA MAKHTESHIM LTD., priority 2018, dated 2025)
Structures can show the parent of a compound that is named as a salt.

Columns and labels:
[1] = cited from earlier work
[2] = Accelerated storage stability: degradation of active ingredients after 14 days at 54° C.; format: physicochemical
Procedure: In some embodiments, the percentage of degradation is calculated based on the percentage of cartap and/or emamectin by weight based on the total weight of the stable composition before and after storage. […]
In addition, two different levels of water content were measured, content (a) less than 0.2% and b) from more than 0.3% to less than 0.5%.
In example 1, the concentrations of the cartap and emamectin were measured after 14 days storage at 54° C.
For GR composition, it was observed that the failed batches are associated with the bulging of the pouch under accelerated storage. For study of accelerated storage at 54° C. for 14 days, the sample is kept in a sealed tri-laminated aluminum pouch and after storage, the visual observations are done to observe the pouch bulging, if any. Comparative rating was done, where more number of stars denotes more bulging. From table 5, it is clear that, for the storage stability samples of pH 5.1, 4.7, 4.1 and 3.5 (for both the processes) samples with water content of less or equal to 0.2% water content by weight based on the total weight of the stable composition, have not shown any bulging.

[3] = pH (1% Aq.) 3.5, water content <0.2 % w/w
[4] = pH (1% Aq.) 3.5, water content >0.3 to <0.5 % w/w
[5] = pH (1% Aq.) 4.1, water content <0.2 % w/w
[6] = pH (1% Aq.) 4.1, water content >0.3 to <0.5 % w/w
[7] = pH (1% Aq.) 4.7, water content <0.2 % w/w
[8] = pH (1% Aq.) 4.7, water content >0.3 to <0.5 % w/w
[9] = pH (1% Aq.) 5.1, water content <0.2 % w/w
[10] = pH (1% Aq.) 5.1, water content >0.3 to <0.5 % w/w
[11] = pH (1% Aq.) 5.5, water content <0.2 % w/w
[12] = pH (1% Aq.) 5.5, water content >0.3 to <0.5 % w/w
[13] = pH (1% Aq.) 5.8, water content <0.2 % w/w
[14] = pH (1% Aq.) 5.8, water content >0.3 to <0.5 % w/w

Molecule: (4″R)-5-O-demethyl-4″-deoxy-4″-(methylamino)avermectin [Emamectin]
- decomposition of emamectin ([1]; highly unstable, decomposes rapidly): about 25%
- stability to hydrolysis ([1]; pH 5, 6, 7 and 8 (25° C.)): stable to hydrolysis
- % Emamectin degradation (14 Days Storage, 54° C.) Process 1 [2, 3]: 1.9%
- % Emamectin degradation (14 Days Storage, 54° C.) Process 2 [2, 3]: 4.49%
- % Emamectin degradation (14 Days Storage, 54° C.) Process 1 [2, 4]: 13%
- % Emamectin degradation (14 Days Storage, 54° C.) Process 2 [2, 4]: 13.97%
- % Emamectin degradation (14 Days Storage, 54° C.) Process 1 [2, 5]: 0.95%
- % Emamectin degradation (14 Days Storage, 54° C.) Process 2 [2, 5]: 2.3%
- % Emamectin degradation (14 Days Storage, 54° C.) Process 1 [2, 6]: 14.45%
- % Emamectin degradation (14 Days Storage, 54° C.) Process 2 [2, 6]: 5.02%
- % Emamectin degradation (14 Days Storage, 54° C.) Process 1 [2, 7]: 6.14%
- % Emamectin degradation (14 Days Storage, 54° C.) Process 2 [2, 7]: 2.38%
- % Emamectin degradation (14 Days Storage, 54° C.) Process 1 [2, 8]: 17.1%
- % Emamectin degradation (14 Days Storage, 54° C.) Process 2 [2, 8]: 7.31%
- % Emamectin degradation (14 Days Storage, 54° C.) Process 1 [2, 9]: 7.98%
- % Emamectin degradation (14 Days Storage, 54° C.) Process 2 [2, 9]: 4.49%
- % Emamectin degradation (14 Days Storage, 54° C.) Process 1 [2, 10]: 12.12%
- % Emamectin degradation (14 Days Storage, 54° C.) Process 2 [2, 10]: 27.2%
- % Emamectin degradation (14 Days Storage, 54° C.) Process 1 [2, 11]: 8.33%
- % Emamectin degradation (14 Days Storage, 54° C.) Process 2 [2, 11]: 6.89%
- % Emamectin degradation (14 Days Storage, 54° C.) Process 1 [2, 12]: 40.96%
- % Emamectin degradation (14 Days Storage, 54° C.) Process 2 [2, 12]: 24.63%
- % Emamectin degradation (14 Days Storage, 54° C.) Process 1 [2, 13]: 16.7%
- % Emamectin degradation (14 Days Storage, 54° C.) Process 2 [2, 13]: 20.2%
- % Emamectin degradation (14 Days Storage, 54° C.) Process 1 [2, 14]: 70.74%
- % Emamectin degradation (14 Days Storage, 54° C.) Process 2 [2, 14]: 26.59%

Molecule: CN(C)C(CSC(N)=O)CSC(N)=O [Cartap Hydrochloride, S,S′-(2-dimethylaminotrimethylene) bis(thiocarbamate)]
- % Cartap Hydrochloride degradation (14 days storage, 54° C.) Process 1 [2, 3]: 0%
- % Cartap Hydrochloride degradation (14 days storage, 54° C.) Process 2 [2, 3]: 2.27%
- % Cartap Hydrochloride degradation (14 days storage, 54° C.) Process 1 [2, 4]: 0%
- % Cartap Hydrochloride degradation (14 days storage, 54° C.) Process 2 [2, 4]: 2.80%
- % Cartap Hydrochloride degradation (14 days storage, 54° C.) Process 2 [2, 5]: 0.23%
- % Cartap Hydrochloride degradation (14 days storage, 54° C.) Process 2 [2, 6]: 2.80%
- % Cartap Hydrochloride degradation (14 days storage, 54° C.) Process 1 [2, 7]: 2.46%
- % Cartap Hydrochloride degradation (14 days storage, 54° C.) Process 1 [2, 8]: 3.63%
- % Cartap Hydrochloride degradation (14 days storage, 54° C.) Process 1 [2, 9]: 2.40%
- % Cartap Hydrochloride degradation (14 days storage, 54° C.) Process 2 [2, 9]: 1.67%
- % Cartap Hydrochloride degradation (14 days storage, 54° C.) Process 1 [2, 10]: 4.05%
- % Cartap Hydrochloride degradation (14 days storage, 54° C.) Process 2 [2, 10]: 1.22%
- % Cartap Hydrochloride degradation (14 days storage, 54° C.) Process 1 [2, 11]: 0.00%
- % Cartap Hydrochloride degradation (14 days storage, 54° C.) Process 1 [2, 12]: 3.30%
- % Cartap Hydrochloride degradation (14 days storage, 54° C.) Process 1 [2, 13]: 3.16%
- % Cartap Hydrochloride degradation (14 days storage, 54° C.) Process 2 [2, 13]: 1.09%
- % Cartap Hydrochloride degradation (14 days storage, 54° C.) Process 1 [2, 14]: 4.94%
- % Cartap Hydrochloride degradation (14 days storage, 54° C.) Process 2 [2, 14]: 6.48%
